Consider three substances from paper PMC10761119, “Phosphorylation-state dependent intraneuronal sorting of Aβ differentially impairs autophagy and the endo-lysosomal system” (Autophagy, 2023).

Test [1] concerns primary cortical neurons. As to the kind of experiment: Immunocytochemistry of surface associated and internalized Aβ. Format: cell-based, mouse. The following applies: Aβ 500 nM, 4 h; antibody 82E1; ~200 neurons, N = 4.
Test [2] deals with primary cortical neurons. As to the kind of experiment: Lysosome enrichment, immunoisolation of LAMP2- or LC3-positive vesicles and Aβ immunoprecipitation with western immunoblotting. In kind it is cell-based, mouse. The following applies: Aβ 500 nM, 4 h; for Intraneuronal accumulation of Aβ peptides by immunoprecipitation of total Aβ (rank order): IP from PNS with 4G8; for Aβ levels in the lysosomal/late endosomal enriched fraction (16,000 g pellet): immunoblot, two independent experiments; for Aβ in LAMP2-immunoisolated lysosomes: compared to p-Ser8Aβ. As to the method:
Cells after respective washing steps were collected by scraping and homogenized in isotonic buffer (10 mM Tris-HCl, pH 7.4, 1 mM MgCl2, 0.1 mM EGTA, 0.25 M sucrose) containing protease and phosphatase inhibitors, by repeated suspension through a 23 G × 1” needle. Cell homogenate was centrifuged at 2,000 g for 5 min. Pellet (nuclear material) was discarded. The post-nuclear supernatant was centrifuged at 16,100 g for 15 min. Pellet comprised of lysosome enriched material and the supernatant was used as the crude lysosome depleted material. Pellet was resuspended in STEN-lysis buffer and the lysosome enriched fraction was the supernatant collected after centrifugation at 16,100 g for 15 min. Supernatant was further centrifuged at 16,100 g for 60 min. The resultant pellet contained lysosome depleted material and supernatant was crude cytosolic material. The pellet was re-homogenized in STEN-lysis buffer and the supernatant was the lysosome depleted fraction collected post-centrifugation at 16,100 g for 15 min.
Cells after respective washing steps were collected by scraping and homogenized in either isotonic buffer or hypotonic D buffer containing protease and phosphatase inhibitors by repeated suspension through a 23 G × 1” needle. Cell homogenate was centrifuged at 2,000 g for 5 min and the nuclear material (pellet) was discarded. The post-nuclear supernatant was then used for IP experiments. Sepharose G beads (ThermoFisher Scientific, 101242) were incubated with PNS material at RT for 1 h, beads were further pelleted down and boiled in 1% SDS in 50 mM Tris-HCl, pH 7.6 along with sample buffer, used as bead control. Supernatant exposed to beads only were devoid of nonspecific binding substrates and was used further as loading control. New set of beads were precoated with respective primary antibodies for 1 h and then incubated with the PNS solutions overnight at 4°C. Beads were pelleted down and boiled with 1% SDS in 50 mM Tris-HCl along with sample buffer as the IP eluate.
For different cellular fractions prepared as described earlier, the protein content was estimated using the standard Pierce™ BCA protein assay kit (ThermoFisher Scientific, 23225). For direct comparison between the samples, equal amount of protein was loaded. Samples were dissolved in Laemmli buffer and were boiled at 95°C for 5 min. They were loaded on a precast 4–12% NuPage® Bis-Tris gels (Life technologies, NP033–5/6, WG140–2/3). Gels and prestained protein molecular weight markers were purchased from Life technologies. The separated proteins were electro-transferred onto a 0.2-μm nitrocellulose (NT) membrane (Amersham, 1060001) for 1 h 45 min. After blotting, the NT membranes were boiled in PBS for 10 min. Ponceau staining was done to monitor protein loading of samples. The blots were then incubated in 5% skim milk in TBS-T (TBS [50 mM Tris-HCl, pH 7.5, 150 mM NaCl] containing 0.1% Tween 20 [Sigma Aldrich, P1379]) for 1 h at RT. Blots were incubated overnight at 4°C in the primary antibody solution (respective dilutions in TBS-T, Table 1). Blots were washed and incubated with appropriate secondary antibodies conjugated either with HRP or fluorescent dyes for 1 h. Blots were developed either by enhanced chemiluminescence (ECL) or fluorescence imaging. For ECL imaging, blots were incubated with equivalent mixtures of ECL solution A (0.1 M Tris, 0.4 mM coumaric acid, 2.5 mM luminol, pH 8.5) and B (0.1 M Tris, 0.018% H2O2) mixed prior to application on blots. Signals were detected with an ECL imager (Bio-Rad, Germany). For fluorescence detection, blots were imaged on a Li-COR imaging station (Li-COR Biosciences, Germany). Blots were presented as is or with minimal linear contrast enhancement (Figure 5B–D; S1; S3E; S5E, S8E). Quantification of band signals was done using ImageJ – Gel processing module or Image Studio processing software (LiCOR Biosciences, Germany). […]

Consider “amyloid-β phosphorylated at serine residue 26 [p-Ser26Aβ]”, for which, in test [1], the “Fluorescence intensities of Aβ signals in unpermeabilized and permeabilized cells (binding to neuronal membranes and intraneuronal accumulation)” value (“Fluorescence intensities of Aβ signals” for short) was “followed by p-Ser26Aβ”. Also, in test [2], the “Intraneuronal accumulation of Aβ peptides by immunoprecipitation of total Aβ (rank order)” value (shortened to “Intraneuronal accumulation … (rank order)”) is “p-Ser8Aβ > p-Ser26Aβ > npAβ” and the “Aβ levels in the lysosomal/late endosomal enriched fraction (16,000 g pellet)” value was “high levels”. Moreover, in test [2] (western immunoblot 82E1), the “Aβ in LAMP2-immunoisolated lysosomes” value is reported as “strongly enriched”.

Turning to “amyloid-β phosphorylated at serine residue 8 [p-Ser8Aβ]”, in test [1], the “Fluorescence intensities of Aβ signals” value was “highest fluorescence intensities”. For the same substance, in test [2], the “Intraneuronal accumulation … (rank order)” value was “p-Ser8Aβ > p-Ser26Aβ > npAβ” and the “Aβ levels in the lysosomal/late endosomal enriched fraction (16,000 g pellet)” value is “only marginal levels”. Further, the “Aβ in LC3 immunoisolated vesicles” value in test [2] (western immunoblot 82E1) is given as “high levels”.

Consider “non-phosphorylated amyloid-β [npAβ, reference compound]”, for which the “Fluorescence intensities of Aβ signals” value in test [1] is given as “least”. Further, in test [2], the “Intraneuronal accumulation … (rank order)” value is given as “p-Ser8Aβ > p-Ser26Aβ > npAβ” and the “Aβ levels in the lysosomal/late endosomal enriched fraction (16,000 g pellet)” value is “moderate levels”. For the same substance, the “Aβ in LAMP2-immunoisolated lysosomes” value in test [2] (western immunoblot 82E1) is “strongly enriched”.
